Source: patent publication US12559506B2, “Indazole based compounds and associated methods of use” (Arvinas Operations, Inc., priority 2021, dated 2026)
Like-named read-outs stand apart in the source and are kept apart here.

Legend:
[1] = molecular target: T1, G2019S LRRK2 (Homo sapiens, UniProt Q5S007, G2019S); assay: LRRK2 degradation assay, HiBit-tagged G2019S LRRK2 expressed from plasmid in HEK293 cells (Nano-Glo Dual-Luciferase); assay type: cell-based; conditions: 24 hours
T1 construct: expressed in transfected cells; host or cells: HEK293 (ATCC CRL-1573), transient transfection, mammalian expression vector with ubiquitin promoter
Outline: (§1)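 Degradation read as Nano-Glo HiBiT signal over firefly luciferase (cell number/viability) after 24 h compound exposure of transiently transfected HEK293 expressing C-terminally HiBiT-tagged wildtype or G2019S LRRK2. Data as % DMSO; DC50/Dmax fitted per plate, triplicate plates repeated twice.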

[2] = molecular target: T2, wildtype LRRK2 (Homo sapiens, UniProt Q5S007); assay: LRRK2 degradation assay, HiBit-tagged wildtype LRRK2 expressed from plasmid in HEK293 cells (Nano-Glo Dual-Luciferase); assay type: cell-based; conditions: 24 hours; for Dmax: read-out: **WT Dmax (%); for DC50: read-out: *WT DC50
T2 construct: expressed in transfected cells; host or cells: HEK293 (ATCC CRL-1573), transient transfection, mammalian expression vector with ubiquitin promoter
Outline: as §1

[3] = HiBit-tagged G2019S LRRK2 in HEK293 cells
[4] = HiBit-tagged wildtype LRRK2 in HEK293 cells
[5] = HiBit-tagged G2019S LRRK2, HEK293 cells
[6] = HiBit-tagged wildtype LRRK2, HEK293 cells

T1 sequence (Q5S007 whole entry G2019S): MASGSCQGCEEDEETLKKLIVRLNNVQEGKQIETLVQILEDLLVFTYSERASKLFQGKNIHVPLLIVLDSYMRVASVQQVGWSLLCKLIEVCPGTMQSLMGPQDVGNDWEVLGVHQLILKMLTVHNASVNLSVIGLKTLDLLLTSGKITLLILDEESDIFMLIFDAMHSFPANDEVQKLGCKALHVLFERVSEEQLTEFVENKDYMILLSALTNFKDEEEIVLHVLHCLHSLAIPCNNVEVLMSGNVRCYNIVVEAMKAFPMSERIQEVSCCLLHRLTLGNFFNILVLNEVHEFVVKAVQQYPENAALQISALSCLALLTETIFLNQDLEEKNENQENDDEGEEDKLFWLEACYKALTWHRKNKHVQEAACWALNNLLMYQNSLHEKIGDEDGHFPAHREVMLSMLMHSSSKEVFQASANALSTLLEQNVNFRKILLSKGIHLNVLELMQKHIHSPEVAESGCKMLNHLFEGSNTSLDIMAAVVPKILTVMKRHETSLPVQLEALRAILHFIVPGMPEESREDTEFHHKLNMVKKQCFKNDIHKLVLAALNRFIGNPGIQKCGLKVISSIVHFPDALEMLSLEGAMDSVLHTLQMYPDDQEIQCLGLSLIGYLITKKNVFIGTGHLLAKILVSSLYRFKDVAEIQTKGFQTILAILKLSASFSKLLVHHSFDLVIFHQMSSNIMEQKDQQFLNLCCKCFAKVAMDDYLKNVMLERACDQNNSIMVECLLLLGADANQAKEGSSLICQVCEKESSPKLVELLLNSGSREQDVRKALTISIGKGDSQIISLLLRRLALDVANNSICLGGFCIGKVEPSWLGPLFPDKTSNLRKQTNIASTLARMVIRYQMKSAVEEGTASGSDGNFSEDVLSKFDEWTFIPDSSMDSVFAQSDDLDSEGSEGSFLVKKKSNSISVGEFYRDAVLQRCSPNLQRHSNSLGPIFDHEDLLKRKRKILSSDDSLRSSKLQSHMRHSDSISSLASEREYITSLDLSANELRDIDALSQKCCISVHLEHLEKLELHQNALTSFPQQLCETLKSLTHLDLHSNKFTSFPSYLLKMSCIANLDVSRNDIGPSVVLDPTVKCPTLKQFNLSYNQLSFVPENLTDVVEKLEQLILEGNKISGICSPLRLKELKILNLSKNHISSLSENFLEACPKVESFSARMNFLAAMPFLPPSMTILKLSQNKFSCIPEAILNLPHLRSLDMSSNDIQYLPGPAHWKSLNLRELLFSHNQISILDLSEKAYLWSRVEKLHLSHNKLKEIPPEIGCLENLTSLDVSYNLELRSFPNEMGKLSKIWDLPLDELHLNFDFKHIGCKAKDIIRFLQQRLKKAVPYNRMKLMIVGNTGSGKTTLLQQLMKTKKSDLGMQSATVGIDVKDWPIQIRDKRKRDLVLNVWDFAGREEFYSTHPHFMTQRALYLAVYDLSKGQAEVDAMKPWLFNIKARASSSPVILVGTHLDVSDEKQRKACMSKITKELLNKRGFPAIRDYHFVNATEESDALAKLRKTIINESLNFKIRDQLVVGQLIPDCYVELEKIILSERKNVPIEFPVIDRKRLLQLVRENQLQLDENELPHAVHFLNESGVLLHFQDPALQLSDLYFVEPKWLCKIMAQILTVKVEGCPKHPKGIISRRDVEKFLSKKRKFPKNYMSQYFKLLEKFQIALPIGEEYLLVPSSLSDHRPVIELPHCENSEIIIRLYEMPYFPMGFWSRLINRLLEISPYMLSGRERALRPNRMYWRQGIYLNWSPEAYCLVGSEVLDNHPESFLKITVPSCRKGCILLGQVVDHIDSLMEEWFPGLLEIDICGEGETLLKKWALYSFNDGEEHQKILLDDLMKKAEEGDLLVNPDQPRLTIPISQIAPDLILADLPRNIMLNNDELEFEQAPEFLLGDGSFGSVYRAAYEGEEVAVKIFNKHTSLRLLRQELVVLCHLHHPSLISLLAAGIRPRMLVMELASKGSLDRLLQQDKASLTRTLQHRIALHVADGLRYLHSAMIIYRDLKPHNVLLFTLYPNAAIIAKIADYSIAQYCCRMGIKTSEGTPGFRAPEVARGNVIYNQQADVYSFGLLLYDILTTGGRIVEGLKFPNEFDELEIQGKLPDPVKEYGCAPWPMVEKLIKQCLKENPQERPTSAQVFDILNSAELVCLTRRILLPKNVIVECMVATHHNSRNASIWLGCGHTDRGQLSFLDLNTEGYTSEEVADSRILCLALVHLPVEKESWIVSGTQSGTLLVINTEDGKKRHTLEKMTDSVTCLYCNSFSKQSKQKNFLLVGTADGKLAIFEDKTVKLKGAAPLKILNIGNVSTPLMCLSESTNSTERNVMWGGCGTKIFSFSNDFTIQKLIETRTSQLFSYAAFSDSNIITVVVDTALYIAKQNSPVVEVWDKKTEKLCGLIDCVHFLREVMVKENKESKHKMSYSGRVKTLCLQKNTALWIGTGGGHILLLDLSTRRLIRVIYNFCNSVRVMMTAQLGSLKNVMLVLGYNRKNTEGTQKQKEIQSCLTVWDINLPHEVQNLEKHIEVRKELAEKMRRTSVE
T2 sequence (Q5S007 whole entry): as the sequence (Q5S007 whole entry G2019S) above, with S2019G counted along it

Structure (SMILES) | DC50 [1, 3] | Dmax [1, 3] | Dmax [2, 4] | DC50 [2, 4] | DC50 [1, 5] | Dmax [1, 5] | Dmax [2, 6] | DC50 [2, 6]
CC1(Oc2ccc3[nH]nc(-c4cc(N5C[C@@H]6[C@@H](CN7CCN(CC8CCN(c9ccc%10c(c9)C(=O)N(C9CCC(=O)NC9=O)C%10=O)CC8)CC7)[C@@H]6C5)ncn4)c3c2)CC1 (stereo partly shown) [Compound 75, 2-(2,6-dioxopiperidin-3-yl)-5-{4-[(4-{[(1r,5s,6s)-3-{6-[5-(1-methylcyclopropoxy)-1H-indazol-3-yl]pyrimidin-4-yl}-3-azabicyclo[3.1.0]hexan-6-yl]methyl}piperazin-1-yl)methyl]piperidin-1-yl}-2,3-dihydro-1H-isoindole-1,3-dione] | < 0.01 µM | ≥ 70% | ≥ 70% | < 0.01 µM |  |  |  | 
C[C@H]1CN(c2cc(-c3n[nH]c4ccc(OC5(C)CC5)cc34)ccn2)CCN1CC1(F)CCN(CC2CCN(c3ccc4c(c3)C(=O)N(C3CCC(=O)NC3=O)C4=O)CC2)CC1 (stereo partly drawn) [Compound 81, 2-(2,6-dioxopiperidin-3-yl)-5-{4-[(4-fluoro-4-{[(2S)-2-methyl-4-{4-[5-(1-methylcyclopropoxy)-1H-indazol-3-yl]pyridin-2-yl}piperazin-1-yl]methyl}piperidin-1-yl)methyl]piperidin-1-yl}-2,3-dihydro-1H-isoindole-1,3-dione] | < 0.01 µM | < 50% | < 50% | < 0.01 µM |  |  |  | 
CC1(Oc2ccc3[nH]nc(-c4cc(N5CC[C@@H](CN6CCN(CC7CCN(c8ccc9c(c8)C(=O)N(C8CCC(=O)NC8=O)C9=O)CC7)CC6)C5)ncn4)c3c2)CC1 (stereo partly drawn) [Compound 167, 2-(2,6-dioxo-3-piperidyl)-5-[4-[[4-[[(3S)-1-[6-[5-(1-methylcyclopropoxy)-1H-indazol-3-yl]pyrimidin-4-yl]pyrrolidin-3-yl]methyl]piperazin-1-yl]methyl]-1-piperidyl]isoindoline-1,3-dione] |  |  |  |  | < 0.01 µM | 50 to 70% | 50 to 70% | < 0.01 µM
CC1(Oc2ccc3n[nH]c(-c4cc(N5CCN(C(=O)C6CCN(CC7CCN(c8ccc9c(c8)C(=O)N(C8CCC(=O)NC8=O)C9=O)CC7)CC6)CC5)ncn4)c3c2)CC1 (stereo not shown) [Compound 84, 2-(2,6-dioxo-3-piperidyl)-5-[4-[[4-[4-[6-[5-(1-methylcyclopropoxy)-2H-indazol-3-yl]pyrimidin-4-yl]piperazine-1-carbonyl]-1-piperidyl]methyl]-1-piperidyl]isoindoline-1,3-dione] | < 0.01 µM | < 50% | 50 to 70% | < 0.01 µM |  |  |  | 
CC1(Oc2ccc3[nH]nc(-c4cc(N5CCN(C[C@@H]6CN(CC7CCN(c8ccc9c(c8)C(=O)N(C8CCC(=O)NC8=O)C9=O)CC7)CCO6)CC5)ncn4)c3c2)CC1 (stereo partly drawn) [Compound 156, 2-(2,6-dioxo-3-piperidyl)-5-[4-[[(2R)-2-[[4-[6-[5-(1-methylcyclopropoxy)-1H-indazol-3-yl]pyrimidin-4-yl]piperazin-1-yl]methyl]morpholin-4-yl]methyl]-1-piperidyl]isoindoline-1,3-dione] |  |  |  |  | < 0.01 µM | < 50% | 50 to 70% | < 0.01 µM
C[C@H]1CN(c2cc(-c3n[nH]c4ccc(OC5(C)CC5)cc34)ncn2)CCN1CCN1CCN(CC2CCN(c3ccc4c(c3)C(=O)N(C3CCC(=O)NC3=O)C4=O)CC2)CC1 (stereo partly drawn) [Compound 55, 2-(2,6-dioxopiperidin-3-yl)-5-{4-[(4-{2-[(2S)-2-methyl-4-{6-[5-(1-methylcyclopropoxy)-1H-indazol-3-yl]pyrimidin-4-yl}piperazin-1-yl]ethyl}piperazin-1-yl)methyl]piperidin-1-yl}-2,3-dihydro-1H-isoindole-1,3-dione] | < 0.01 µM | ≥ 70% | ≥ 70% | < 0.01 µM |  |  |  | 
CC1(Oc2ccc3n[nH]c(-c4cc(N5CCN(CC6(F)CCN(C(=O)C7CCN(c8ccc9c(c8)C(=O)N(C8CCC(=O)NC8=O)C9=O)CC7)CC6)CC5)ncn4)c3c2)CC1 (stereo not shown) [Compound 96, 2-(2,6-dioxo-3-piperidyl)-5-[4-[4-fluoro-4-[[4-[6-[5-(1-methylcyclopropoxy)-1H-indazol-3-yl]pyrimidin-4-yl]piperazin-1-yl]methyl]piperidine-1-carbonyl]-1-piperidyl]isoindoline-1,3-dione] | < 0.01 µM | 50 to 70% | 50 to 70% | < 0.01 µM |  |  |  | 
CC1(Oc2ccc3[nH]nc(-c4cc(N5CCN(CC(F)(F)C6CCN(CC7CCN(c8cccc9c8C(=O)N(C8CCC(=O)NC8=O)C9=O)CC7)CC6)CC5)ncn4)c3c2)CC1 (stereo not shown) [Compound 148, 4-[4-[[4-[1,1-difluoro-2-[4-[6-[5-(1-methylcyclopropoxy)-1H-indazol-3-yl]pyrimidin-4-yl]piperazin-1-yl]ethyl]-1-piperidyl]methyl]-1-piperidyl]-2-(2,6-dioxo-3-piperidyl)isoindoline-1,3-dione] | 0.01 to 0.05 µM | 50 to 70% | < 50% | 0.01 to 0.05 µM |  |  |  | 
CC1(Oc2ccc3[nH]nc(-c4cc(N5CCN(C[C@H]6CN(CC7CCN(c8ccc9c(c8)C(=O)N(C8CCC(=O)NC8=O)C9=O)CC7)CCO6)CC5)ncn4)c3c2)CC1 (stereo partly drawn) [Compound 157, 2-(2,6-dioxopiperidin-3-yl)-5-(4-{[(2S)-2-[(4-{6-[5-(1-methylcyclopropoxy)-1H-indazol-3-yl]pyrimidin-4-yl}piperazin-1-yl)methyl]morpholin-4-yl]methyl}piperidin-1-yl)-2,3-dihydro-1H-isoindole-1,3-dione] |  |  |  |  | < 0.01 µM | ≥ 70% | 50 to 70% | < 0.01 µM
CC1(Oc2ccc3[nH]nc(-c4cc(N5CCN(C[C@@H]6CCN(CC7CCN(c8ccc9c(c8)C(=O)N(C8CCC(=O)NC8=O)C9=O)CC7)C(=O)C6)CC5)ncn4)c3c2)CC1 (single isomer, unassigned) [Compound 103] | < 0.01 µM | 50 to 70% | 50 to 70% | < 0.01 µM |  |  |  | 
CC1(Oc2ccc3[nH]nc(-c4cc(N5CCO[C@@H](CN6CCC(OC7CCN(c8ccc9c(c8)C(=O)N(C8CCC(=O)NC8=O)C9=O)CC7)CC6)C5)ncn4)c3c2)CC1 (stereo partly drawn) [Compound 149, 2-(2,6-dioxo-3-piperidyl)-5-[4-[[1-[[(2S)-4-[6-[5-(1-methylcyclopropoxy)-1H-indazol-3-yl]pyrimidin-4-yl]morpholin-2-yl]methyl]-4-piperidyl]oxy]-1-piperidyl]isoindoline-1,3-dione] | 0.01 to 0.05 µM | 50 to 70% | 50 to 70% | 0.01 to 0.05 µM |  |  |  | 

Now from value to compound:

DC50 [1, 3] | Dmax [1, 3] | Dmax [2, 4] | DC50 [2, 4] | DC50 [1, 5] | Dmax [1, 5] | Dmax [2, 6] | DC50 [2, 6] | Structure (SMILES)
< 0.01 µM | < 50% | 50 to 70% | < 0.01 µM |  |  |  |  | CC1(Oc2ccc3[nH]nc(-c4cc(N5CCC(O[C@@H]6CCN(CC7CCN(c8ccc9c(c8)C(=O)N(C8CCC(=O)NC8=O)C9=O)CC7)C6)CC5)ncn4)c3c2)CC1 (stereo partly drawn) [Compound 116, 2-(2,6-dioxo-3-piperidyl)-5-[4-[[(3R)-3-[[1-[6-[5-(1-methylcyclopropoxy)-1H-indazol-3-yl]pyrimidin-4-yl]-4-piperidyl]oxy]pyrrolidin-1-yl]methyl]-1-piperidyl]isoindoline-1,3-dione]
< 0.01 µM | 50 to 70% | 50 to 70% | < 0.01 µM |  |  |  |  | CC1(Oc2ccc3[nH]nc(-c4cc(N5CCC(CN6CC[C@@H](CN7CCN(c8ccc9c(c8)C(=O)N(C8CCC(=O)NC8=O)C9=O)CC7)C6)CC5)ncn4)c3c2)CC1 (stereo partly drawn) [Compound 115, 2-(2,6-dioxopiperidin-3-yl)-5-(4-{[(3R)-1-[(1-{6-[5-(1-methylcyclopropoxy)-1H-indazol-3-yl]pyrimidin-4-yl}piperidin-4-yl)methyl]pyrrolidin-3-yl]methyl}piperazin-1-yl)-2,3-dihydro-1H-isoindole-1,3-dione]
 |  |  |  | < 0.01 µM | < 50% | 50 to 70% | < 0.01 µM | CC1(Oc2ccc3[nH]nc(-c4cc(N5CCC(CN6CC7(CCN7CC7CCN(c8ccc9c(c8)C(=O)N(C8CCC(=O)NC8=O)C9=O)CC7)C6)CC5)ncn4)c3c2)CC1 (stereo not shown) [Compound 176, 2-(2,6-dioxo-3-piperidyl)-5-[4-[[6-[[1-[6-[5-(1-methylcyclopropoxy)-1H-indazol-3-yl]pyrimidin-4-yl]-4-piperidyl]methyl]-1,6-diazaspiro[3.3]heptan-1-yl]methyl]-1-piperidyl]isoindoline-1,3-dione]
0.01 to 0.05 µM | < 50% | < 50% | 0.01 to 0.05 µM |  |  |  |  | CC1(Oc2ccc3[nH]nc(-c4ccnc(N5CCC(C(=O)N6CCC(CC7CCN(c8ccc9c(c8)C(=O)N(C8CCC(=O)NC8=O)C9=O)CC7)CC6)CC5)c4)c3c2)CC1 (stereo not shown) [Compound 89, 2-(2,6-dioxopiperidin-3-yl)-5-(4-{[1-(1-{4-[5-(1-methylcyclopropoxy)-1H-indazol-3-yl]pyridin-2-yl}piperidine-4-carbonyl)piperidin-4-yl]methyl}piperidin-1-yl)-2,3-dihydro-1H-isoindole-1,3-dione]
0.01 to 0.05 µM | 50 to 70% | 50 to 70% | < 0.01 µM |  |  |  |  | CC1(Oc2ccc3[nH]nc(-c4cc(N5CCC(CC6CCN(C(=O)C7CCN(c8ccc9c(c8)C(=O)N(C8CCC(=O)NC8=O)C9=O)CC7)CC6)CC5)ncn4)c3c2)CC1 (stereo not shown) [Compound 92, 2-(2,6-dioxo-3-piperidyl)-5-[4-[4-[[1-[6-[5-(1-methylcyclopropoxy)-1H-indazol-3-yl]pyrimidin-4-yl]-4-piperidyl]methyl]piperidine-1-carbonyl]-1-piperidyl]isoindoline-1,3-dione]
